PMC7587396, “New Zileuton-Hydroxycinnamic Acid Hybrids: Synthesis and Structure-Activity Relationship towards 5-Lipoxygenase Inhibition” (Molecules, 2020)
Entries after “also recorded” stand apart in the source; their conditions may differ.

Key:
5-LO [1] = biological target: T1, 5-LO (Homo sapiens, UniProt P09917); assay: 5-LO product biosynthesis assay in stimulated HEK293 cells co-transfected with 5-LO and FLAP; assay type: cell-based; parameters: expressed in transfected cells; host or cells: HEK293 cells, stably co-transfected (pcDNA3.1 5-LO, pBUDCE4.1 FLAP); details: compounds at 1 µM; result in words, compared with zileuton (1) and SAPE (2) at 1 µM; A23187 + arachidonic acid stimulation
T1 sequence (P09917 1-674): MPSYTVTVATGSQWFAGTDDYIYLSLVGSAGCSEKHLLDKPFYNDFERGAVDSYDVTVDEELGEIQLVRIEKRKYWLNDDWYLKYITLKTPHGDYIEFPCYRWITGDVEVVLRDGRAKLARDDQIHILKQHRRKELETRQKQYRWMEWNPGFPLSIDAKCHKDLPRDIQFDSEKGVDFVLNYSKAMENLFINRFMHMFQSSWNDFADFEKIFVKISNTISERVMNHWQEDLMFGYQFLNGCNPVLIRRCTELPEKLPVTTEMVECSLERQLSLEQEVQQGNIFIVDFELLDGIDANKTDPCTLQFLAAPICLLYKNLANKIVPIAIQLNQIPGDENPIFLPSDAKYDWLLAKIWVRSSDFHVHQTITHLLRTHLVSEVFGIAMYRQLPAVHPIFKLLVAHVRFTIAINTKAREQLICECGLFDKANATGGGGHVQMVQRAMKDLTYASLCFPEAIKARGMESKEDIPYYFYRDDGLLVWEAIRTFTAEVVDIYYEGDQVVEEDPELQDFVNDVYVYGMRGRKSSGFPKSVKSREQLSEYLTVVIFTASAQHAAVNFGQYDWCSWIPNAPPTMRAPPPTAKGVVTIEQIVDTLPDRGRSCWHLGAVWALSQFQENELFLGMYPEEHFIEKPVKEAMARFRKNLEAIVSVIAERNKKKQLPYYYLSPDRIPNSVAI
Experimental: All compounds, including known inhibitors zileuton (1) and SAPE (2), were assayed at 1 µM (Figure 1) for inhibition of LTs biosynthesis in stimulated HEK293 cells. These cells are stably transfected with human 5-LO and serves as a highly reproducible model of 5-LO product biosynthesis in which compounds can be preliminarily screened for anti-LTs activity before moving on to more complex systems. […] Esterification of benzo[b]thiophene-2-carboxylic acid to obtain benzyl to phenbutyl analogs (4–7) had no effect on the inhibitory activity of 5-LO. […] Even the addition of a hydroxyl (8) or methoxy (9) at para-position of the phenethyl group has no effect on the activity.
HEK293 cells were stably co-transfected with a pcDNA3.1 vector expressing 5-LO and a pBUDCE4.1 vector expressing 5-LO activating protein (FLAP) as previously reported. This represents a controlled model for the evaluation of 5-LO inhibition in a cellular system. For cell stimulation of 5-LO products, transfected HEK293 cells were collected following trypsinization, washed and the cell pellet was resuspended in Hank’s balanced salt solution (HBSS) (Lonza, Walkerville, MD) containing 1.6 mM CaCl2 at a concentration of 5 × 10^5 cells/mL. Cells were pre-incubated with each compound dissolved in DMSO at the indicated concentration for 5 min at 37 °C. Cells were then stimulated for 15 min at 37 °C with the addition of 10 µM calcium ionophore A23187 (Sigma-Aldrich, Oakville, ON, Canada) and 10 µM arachidonic acid (Cayman Chemical, Ann Arbor, MI). Stimulation was stopped and processed for RP-HPLC analysis as described previously.

[2] = Free radical scavenging activity assay (DPPH); details: DPPH stable radical, 30 min, absorbance 517 nm; read-out: Free radical scavenging activity IC50 (µM) [SEM]
Experimental: A mechanism by which 5-LO activity can be inhibited is through reductive inhibition of the ferric non-heme iron of the enzyme. Interactions with stable free radicals provides an evaluation of the reducing ability of the test compounds. Radical scavenging activities of compounds tested in stimulated PMNL were assayed using 2,2-Diphenyl-1-picrylhydrazyl (DPPH) as a stable radical and are expressed as IC50 concentrations in Table 1.
The free radical scavenging activity of test compounds was measured as previously described using 2,2-diphenyl-1-picrylhydrazyl (DPPH) as a stable radical with slight modifications. DPPH (200 µL) in ethanol (250 µM) was mixed with 200 µL of the test compounds (1, 5, 10, 25, 50, 75, and 100 µg/mL). Each mixture was then shaken vigorously and held in the dark for 30 min at room temperature. The absorbance of DPPH at 517 nm was then measured. The radical scavenging activity was expressed in terms of % inhibition of DPPH absorbance:% Inhibition = (A control − A test)/A control) × 100 where A control is the absorbance of the control (DPPH solution without test compounds) and A test is the absorbance of the test sample (DPPH solution plus compounds). Ascorbic acid was used as a positive control. Data were expressed as mean ± SEM of three independent experiments, each performed in triplicate. IC50 values were calculated from a sigmoidal concentration-response curve-fitting model with a variable slope on GraphPad Prism software.

5-LO [3] = biological target: T1, 5-LO; assay: 5-LO products biosynthesis assay in human PMNL cells; assay type: cell-based; parameters: 5-LO is highly expressed in PMNL; endogenous in cells; host or cells: human PMNL from peripheral blood of healthy volunteers; details: for Inhibition of the biosynthesis of 5-LO products in human PMNL cells: compounds at 1 µM, result in words, compared with zileuton (1), SAPE (2) or controls, thapsigargin stimulation
Text: To further probe the inhibitory activity of compounds that approached the inhibitory activity of zileuton (1) and SAPE (2), compounds were selected for further screening in PMNL (Figure 6). 5-LO is highly expressed in PMNL and these cells are important physiological producers of LTB4 [17]. […] The presence of the hydroxyl group in position 4 and the methoxy groups in positions 3 and 5 seems to be an ideal combination for inhibition of 5-LO (Figure 6). These structural changes may influence the availability, cell permeation, or even the stability of inhibitors in PMNL versus HEK293 cells. […] Human PMNL were prepared from peripheral blood of healthy consenting volunteers as described. Human PMNL are an important source of 5-LO metabolites and are relevant primary inflammatory cells for the evaluation of the best compounds identified during the screening process. PMNL were suspended in HBSS containing 1.6 mM CaCl2 (10^7 cells/mL) and pre-incubated with compounds dissolved in DMSO for 5 min at 37 °C in the presence of 0.4 U/mL of adenosine deaminase (Sigma-Aldrich, Oakville, On, Canada). Cells were then stimulated for 15 min at 37 °C with 1 μM thapsigargin (Sigma-Aldrich). Reactions were stopped by the addition of 0.5 mL of cold MeOH:CH3CN (1:1) and 50 ng of PGB2 as internal standard and samples were stored at -20 °C until processing for RP-HPLC analysis as indicated above.

| SMILES | Inhibition of the biosynthesis of 5-LO products in stimulated HEK293 cells (5-LO [1]) | IC50 [2] | IC50 (5-LO [3]; 95% confidence interval: 0.25–0.53 μM, read-out: IC50 for the inhibition of 5-LO product biosynthesis in PMNL) | melting point | Inhibition of the biosynthesis of 5-LO products in human PMNL cells (5-LO [3]) |
| --- | --- | --- | --- | --- | --- |
| COc1cc(/C=C/C(=O)c2cc3ccccc3s2)cc(OC)c1 [Compound 20] | not-significantly different than zileuton (1) |  |  |  |  |
| NC(=O)N(O)C(=O)CCc1ccccc1 [Compound 40] | inactive |  |  |  |  |
| O=C(/C=C/c1ccc(O)cc1)c1cc2ccccc2s1 [Compound 16] | non-significantly different than Zileuton (1) | 68.9 µM |  |  | neither compound showed significant inhibition compared to controls |
| Cc1cc(/C=C/C(=O)c2cc3ccccc3s2)cc(C)c1O [Compound 29] | does not seem to be favorable for the inhibition of 5-LO products |  |  |  |  |
| COc1cc(/C=C/C(=O)c2cc3ccccc3s2)cc(OC)c1O [Compound 28] | equipotent to zileuton (1); also recorded: non-significantly different than zileuton (1) and SAPE (2) | 48.9 µM | 0.37 µM |  | three times as active as zileuton (1); also recorded: exceeding zileuton’s (1) inhibitory capacity in PMNL by more than three times |
| COc1cc(/C=C/C(=O)N(O)C(N)=O)ccc1O [Compound 35] | inactive |  |  |  |  |
| COc1ccc(/C=C/C(=O)N(O)C(N)=O)cc1OC [Compound 36] | inactive |  |  |  |  |
| COc1cc(/C=C/C(=O)N(O)C(N)=O)cc(OC)c1O [Compound 37] | inactive | 13.3 µM |  |  | inactivity; also recorded: inactive |
| COc1cc(/C=C/C(=O)c2cc3ccccc3s2)ccc1O [Compound 18] | not-significantly different than zileuton (1) | 68.8 µM |  |  | less active than zileuton (1) and SAPE (2) |
| O=C(/C=C/c1ccccc1O)c1cc2ccccc2s1 [Compound 14, (E)-1-(1-Benzothiophen-2-yl)-3-(o-hydroxyphenyl)-2-propen-1-one] | non-significantly different than Zileuton (1) | 31.8 µM |  | 178 to 180 °C | neither compound showed significant inhibition compared to controls |
| COc1ccc(/C=C/C(=O)N(O)C(N)=O)cc1O [Compound 34, 1-Hydroxy-1-((E)-3-(3-hydroxy-4-methoxyphenyl)acryloyl)urea] | inactive |  |  | 170 to 172 °C |  |
| O=C1O[C@H]([C@@H](O)CO)C(O)=C1O [Vitamin C, Ascorbic acid, reference compound] |  | 21.8 µM |  |  |  |
| COc1cc(/C=C/C(=O)c2cc3ccccc3s2)cc(O)c1OC [Compound 31] | inactive; also recorded: less active than compound 28 | 6.6 µM |  |  | total loss of activity; also recorded: inactive |
| NC(=O)N(O)C(=O)c1ccccc1 [Compound 38, 1-Hydroxy-1-(benzoyl)urea] | inactive |  |  | 127 to 129 °C |  |
| O=C(/C=C/c1ccccc1)c1cc2ccccc2s1 [Compound 11, (E)-1-(1-Benzothiophen-2-yl)-3-phenyl-2-propen-1-one] | less active than SAPE (2); also recorded: non-significantly different than Zileuton (1) |  |  | 118 to 120 °C |  |
| NC(=O)N(O)C(=O)/C=C/c1ccccc1 [Compound 33, 1-Hydroxy-1-((E)-3-phenylacryloyl)urea] | inactive |  |  | 130 to 132 °C |  |
| NC(=O)N(O)C(=O)Cc1ccccc1 [Compound 39, 1-Hydroxy-1-(2-phenylacetyl)urea] | inactive |  |  | 133 to 135 °C |  |

Now from value to compound, other results behind:

| Inhibition of the biosynthesis of 5-LO products in stimulated HEK293 cells (5-LO [1]) | IC50 [2] | IC50 (5-LO [3]; 95% confidence interval: 0.25–0.53 μM, read-out: IC50 for the inhibition of 5-LO product biosynthesis in PMNL) | melting point | SMILES | Inhibition of the biosynthesis of 5-LO products in human PMNL cells (5-LO [3]) |
| --- | --- | --- | --- | --- | --- |
| inactive |  |  |  | COc1cc(/C=C/C(=O)c2cc3ccccc3s2)cc(OC)c1OC [Compound 26] |  |
| equipotent to Zileuton (1) | 6.9 µM |  |  | COc1cc(OC)c(/C=C/C(=O)c2cc3ccccc3s2)c(OC)c1 [Compound 27] | complete loss of the 5-LO inhibition |
|  | 25.4 µM |  |  | COc1cc(/C=C/C(=O)OCCc2ccccc2)cc(OC)c1O [SAPE (2), sinapic acid phenethyl ester, reference compound] |  |
| less active than compound 28 |  |  |  | COc1cc(O)cc(OC)c1/C=C/C(=O)c1cc2ccccc2s1 [Compound 30] |  |
|  |  |  | 61 to 62 °C | O=C(OCCc1ccccc1)c1cc2ccccc2s1 [Compound 5, Phenethyl 1-benzothiophene-2-carboxylate] |  |
|  | 64.7 µM |  |  | COc1ccc(/C=C/C(=O)c2cc3ccccc3s2)cc1O [Compound 17] | less active than zileuton (1) and SAPE (2) |
|  | > 100 µM |  |  | CC(c1cc2ccccc2s1)N(O)C(N)=O (stereo not shown) [Zileuton (1), zileuton] |  |
